The target of one test is PikCD50N-RhFRED (Streptomyces venezuelae, UniProt O87605, D50N). It counts as biochemical. The note with it: PikCD50N-RhFRED; for Number of products: Table 1.
In test [1] the test system is Kocuria rhizophila ATCC9341. Description: antibacterial MIC, microtiter dilution. Conditions: for MIC: Kocuria rhizophila, ATCC9341, read-out: Minimal inhibitory concentration; for Minimal inhibitory concentration: Kocuria rhizophila ATCC9341, Nutrient broth.
Test [2] concerns Staphylococcus aureus ATCC6538P. Put plainly: antibacterial MIC, microtiter dilution. Conditions: for MIC: Staphylococcus aureus, ATCC6538P, read-out: Minimal inhibitory concentration; for Minimal inhibitory concentration: Staphylococcus aureus ATCC6538P, LB.
Test [3] relates to Bacillus subtillis DHS5333. Put plainly: antibacterial MIC, microtiter dilution. The note with it: for MIC: Bacillus, DHS5333, read-out: Minimal inhibitory concentration; for Minimal inhibitory concentration: Bacillus subtillis DHS5333, LB.
The test system of the next test is Deinococcus radiodurans. Description: antibacterial MIC, microtiter dilution. Conditions: 60 h; for MIC: read-out: Minimal inhibitory concentration, Deinococcus radiodurans, Special media, 30° C.; for Minimal inhibitory concentration: Special media, 30° C.
For the next test, the system named is Escherichia. coli TolC. Description: antibacterial MIC, microtiter dilution. Conditions: Mueller Hinten; for MIC: Escherichia coli, read-out: Minimal inhibitory concentration, E. coli W3110 TolC disruption mutant; for Minimal inhibitory concentration: E. coli W3110 TolC disruption mutant.
The test system of the next test is S. aureus NorA. Put plainly: antibacterial MIC, microtiter dilution. Conditions: for MIC: Staphylococcus aureus, read-out: Minimal inhibitory concentration; for Minimal inhibitory concentration: S. aureus 8325 NorA disruption mutant, Mueller Hinten.
A further test concerns Acinetobacter baumannii. Put plainly: antibacterial MIC, microtiter dilution. Conditions: for MIC: read-out: Minimal inhibitory concentration; for Minimal inhibitory concentration: Mueller Hinten.
Test [4] has as its system Multidrug resistant S. aureus (MRSA). Put plainly: antibacterial MIC, microtiter dilution. The note with it: for MIC: Staphylococcus aureus, MRSA, read-out: Minimal inhibitory concentration; for Minimal inhibitory concentration: Multidrug resistant S. aureus (MRSA), Mueller Hinten.

≈ marks a conversion by molar mass, not a printed value.

The values below come from patent US20120190635A1, “SELECTIVE OXIDATION OF C-H BONDS OF MODIFIED SUBSTRATES BY P450 MONOOXYGENASE” (THE REGENTS OF THE UNIVERSITY OF MICHIGAN, priority 2009, published 2012).

Chain of PikCD50N-RhFRED (O87605 other isoform, or with tags, fused parts or gaps D50N): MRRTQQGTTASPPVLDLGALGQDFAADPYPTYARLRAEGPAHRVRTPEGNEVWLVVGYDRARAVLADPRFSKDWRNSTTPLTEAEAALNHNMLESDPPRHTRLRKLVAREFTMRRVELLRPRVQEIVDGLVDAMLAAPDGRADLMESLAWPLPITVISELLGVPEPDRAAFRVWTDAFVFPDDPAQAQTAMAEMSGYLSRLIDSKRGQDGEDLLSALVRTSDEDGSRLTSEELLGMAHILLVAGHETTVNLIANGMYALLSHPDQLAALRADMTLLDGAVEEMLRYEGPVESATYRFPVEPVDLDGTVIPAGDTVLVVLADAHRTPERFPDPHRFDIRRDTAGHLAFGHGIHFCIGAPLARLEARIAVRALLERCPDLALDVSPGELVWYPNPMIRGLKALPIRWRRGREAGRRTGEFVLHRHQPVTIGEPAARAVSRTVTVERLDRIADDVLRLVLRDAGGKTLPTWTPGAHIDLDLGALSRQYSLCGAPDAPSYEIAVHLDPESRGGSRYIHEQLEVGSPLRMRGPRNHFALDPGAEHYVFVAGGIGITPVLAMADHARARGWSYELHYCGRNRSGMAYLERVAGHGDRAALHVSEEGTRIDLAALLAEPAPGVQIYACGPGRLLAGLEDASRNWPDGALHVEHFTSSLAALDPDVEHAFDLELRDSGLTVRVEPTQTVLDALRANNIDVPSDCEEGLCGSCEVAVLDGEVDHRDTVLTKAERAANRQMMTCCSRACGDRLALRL

Molecule `CC[C@H]1OC(=O)[C@H](C)[C@@H](O[C@@H]2OC(C)CC(C)C2C)[C@@H](C)C[C@@H](C)C(=O)/C=C/[C@H]1C` (stereo partly drawn) [Compound 1, YC-17, reference compound] yielded a Number of products at PikCD50N-RhFRED of 2. Moreover, the MIC in [1] turned out to be 100 µM (≈ 42.3 µg/mL); in test [2], 100 µM (≈ 42.3 µg/mL); in [3], 100 µM (≈ 42.3 µg/mL); in the test with Deinococcus radiodurans it was 400 µM (≈ 169 µg/mL); with Escherichia. coli TolC it was 100 µM (≈ 42.3 µg/mL); in the test with S. aureus NorA, 100 µM (≈ 42.3 µg/mL). Further, the MIC (in the test with Acinetobacter baumannii; in [4]) was > 400 µM throughout.
On to `OC1CCCCCCCCCCCCCC1` [Cyclopentadecanol, reference compound], for which the MIC (in test [1]; in test [2]; in test [3]; in the test with Deinococcus radiodurans; with Escherichia. coli TolC; with S. aureus NorA) was > 400 µM in each case. The MIC (in the test with Acinetobacter baumannii; in test [4]) was > 400 µM each time.
For `CC[C@H]1OC(=O)[C@H](C)[C@@H](O[C@@H]2O[C@H](C)C[C@H](N(C)C)[C@H]2O)[C@@H](C)C[C@@H](C)C(=O)/C=C/[C@]1(C)O` [Compound 2, methymycin, reference compound], the MIC in [1] was found to be 50 µM (≈ 23.5 µg/mL); in test [2] it was 100 µM (≈ 47 µg/mL); in [3] it was 100 µM (≈ 47 µg/mL); with Deinococcus radiodurans it was 200 µM (≈ 93.9 µg/mL); in the test on Escherichia. coli TolC, 50 µM (≈ 23.5 µg/mL); with S. aureus NorA, 100 µM (≈ 47 µg/mL). The MIC (with Acinetobacter baumannii; in test [4]) was > 400 µM throughout.
For `C#CCCCCCCCCCOC1OC(C)CC(N(C)C)C1O` (stereo not drawn) [Compound 18, 4-(dimethylamino)-6-methyl-2-(undec-10-ynyloxy)-tetrahydro-2H-pyran-3-ol], the MIC in test [1] is > 400 µM; in test [2] it was > 400 µM; in test [3], > 400 µM; in the test on Deinococcus radiodurans, > 400 µM; in the test with Escherichia. coli TolC, 400 µM (≈ 130 µg/mL); in the test on S. aureus NorA, > 400 µM. Besides, the MIC (with Acinetobacter baumannii; in test [4]) was > 400 µM throughout.
Take `CN(C)CCCOC1CCCCCCCCCCCCCC1` [Compound 24, 3-(cyclopentadecyloxy)-N,N-dimethylpropan-1-amine]: the “yield and selectivity (number of product peaks) relative to 12” value at PikCD50N-RhFRED is recorded as “improved compared to 12”.
Regarding `C[C@@H]1C[C@H](N(C)C)[C@@H](O)[C@H](OC2CCCCCCCC(O)CCCC2)O1` (stereo partly drawn) [Compound 8-C6OH-b, (2S,3R,4S,6R)-4-(dimethylamino)-2-(6-hydroxycyclotridecyloxy)-6-methyltetrahydro-2H-pyran-3-ol], the Minimal inhibitory concentration was >400 µM in test [1]; >400 µM in [2]; >400 µM in [3]; 400 µM (≈ 149 µg/mL) in the test with Deinococcus radiodurans; >400 µM in the test with Escherichia. coli TolC; >400 µM with S. aureus NorA. Besides, the Minimal inhibitory concentration (in the test on Acinetobacter baumannii; in test [4]) was >400 µM in each case.
With `C[C@@H]1C[C@H](N(C)C)[C@@H](O)[C@H](OC2CCCCCCC(O)CCCCC2)O1` (single isomer, unassigned) [Compound 8-C7OH-b], the Minimal inhibitory concentration in test [1] was >400 µM; in test [2] it was >400 µM; in test [3], >400 µM; in the test on Deinococcus radiodurans, 100 µM (≈ 37.2 µg/mL); with Escherichia. coli TolC, 400 µM (≈ 149 µg/mL); in the test with S. aureus NorA, >400 µM. Also, the Minimal inhibitory concentration (in the test on Acinetobacter baumannii; in [4]) was >400 µM throughout.
Turning to `C[C@@H]1C[C@H](N(C)C)[C@@H](O)[C@H](OC2CCCCCCCC(O)CCCC2)O1` (stereo partly drawn) [Compound 8-C6OH-a, (2S,3R,4S,6R)-4-(dimethylamino)-2-(6-hydroxycyclotridecyloxy)-6-methyltetrahydro-2H-pyran-3-ol], the MIC (in test [1]; in [2]; in test [3]; in the test on Deinococcus radiodurans; with Escherichia. coli TolC; in the test on S. aureus NorA) was > 400 µM throughout. The MIC (in the test with Acinetobacter baumannii; in [4]) was > 400 µM throughout.
As for `CC[C@H]1OC(=O)[C@H](C)C(=O)[C@H](C)[C@@H](O[C@@H]2O[C@H](C)C[C@H](N(C)C)[C@H]2O)[C@@H](C)C[C@@H](C)C(=O)/C=C/[C@H]1C` [Compound 4, narbomycin, reference compound], the Minimal inhibitory concentration in test [1] was <3.1 µM; in test [2], 6.2 µM (≈ 3.16 µg/mL); in [3], <3.1 µM; with Deinococcus radiodurans it was 100 µM (≈ 51 µg/mL); in the test on Escherichia. coli TolC it was 25 µM (≈ 12.7 µg/mL); in the test with S. aureus NorA, 3.1 µM (≈ 1.58 µg/mL). Further, the Minimal inhibitory concentration (with Acinetobacter baumannii; in test [4]) was >400 µM in each case.
`OC1CCCCCCCCCCCC1` [Cyclotridecanol, reference compound]: the MIC (in [1]; in test [2]; in [3]; in the test on Deinococcus radiodurans; in the test with Escherichia. coli TolC; in the test on S. aureus NorA) was > 400 µM each time. Besides, the MIC (with Acinetobacter baumannii; in test [4]) was > 400 µM each time.
In the case of `CC[C@H]1OC(=O)[C@H](C)C(=O)[C@H](C)[C@@H](O[C@@H]2O[C@H](C)C[C@H](N(C)C)[C@H]2O)[C@@H](C)C[C@@H](C)C(=O)/C=C/[C@]1(C)O` [Compound 5, pikromycin, reference compound], the Minimal inhibitory concentration in [1] stood at 6.2 µM (≈ 3.26 µg/mL); in test [2] it was 25 µM (≈ 13.1 µg/mL); in [3], 12.5 µM (≈ 6.57 µg/mL); in the test with Deinococcus radiodurans it was 100 µM (≈ 52.6 µg/mL); with Escherichia. coli TolC, 100 µM (≈ 52.6 µg/mL); with S. aureus NorA it was 12.5 µM (≈ 6.57 µg/mL). The Minimal inhibitory concentration (with Acinetobacter baumannii; in [4]) was >400 µM each time.
On to `C[C@@H]1C[C@H](N(C)C)[C@@H](O)[C@H](OC2CCCCCCC(O)CCCCC2)O1` (single isomer, unassigned) [Compound 8-C7OH-a], for which the MIC (in [1]; in [2]; in test [3]; in the test on Escherichia. coli TolC; in the test with S. aureus NorA; in the test with Acinetobacter baumannii) was > 400 µM throughout. Also, in [4], the MIC was > 400 µM. In the test with Deinococcus radiodurans, this molecule gave a Minimal inhibitory concentration of 400 µM (≈ 149 µg/mL).
`CC[C@H]1OC(=O)[C@H](C)[C@@H](O[C@H]2C[C@@](C)(OC)[C@@H](O)[C@H](C)O2)[C@H](C)[C@@H](O[C@@H]2O[C@H](C)C[C@H](N(C)C)[C@H]2O)[C@](C)(O)C[C@@H](C)C(=O)[C@H](C)[C@@H](O)[C@]1(C)O` [Erythromycin, reference compound]: the MIC in [1] is < 0.8 µM; in test [2] it was < 0.8 µM; in test [3] it was < 0.8 µM; with Deinococcus radiodurans it was 6.2 µM (≈ 4.55 µg/mL); in the test with Escherichia. coli TolC it was < 0.8 µM; in the test on S. aureus NorA, < 0.8 µM. In addition, the MIC with Acinetobacter baumannii was 25 µM (≈ 18.3 µg/mL); in [4] it was > 100 µM.
Take `CCCCC#CCOC1OC(C)CC(N(C)C)C1O` (stereo not drawn) [Compound 16, 4-(Dimethylamino)-2-(hept-2-ynyloxy)-6-methyltetrahydro-2H-pyran-3-ol]: on PikCD50N-RhFRED, the Number of products was 0.
